Results: the NIST ThermoML archive (doi:10.1016/j.jct.2004.12.001)

How the values were obtained:
[1] = xn = mol fraction of the nth substance listed; conditions: 303.15 K, 101 kPa, Liquid; for speed of sound: Frequency=2 MHz
[2] = 303.15 K, Liquid; for mass density: 101 kPa; for speed of sound: 101.33 kPa, Frequency=2 MHz

c1ccccc1 [benzene] + CC(CC(C)(C)C)CP(=O)(O)CC(C)CC(C)(C)C
[1], x2 = 0
Conditions	mass density [kg/m3]	speed of sound [m/s]
–	872	1257

Cc1ccccc1 [toluene] + CC(CC(C)(C)C)CP(=O)(O)CC(C)CC(C)(C)C
[1], x2 = 0
Conditions	mass density [kg/m3]	speed of sound [m/s]
–	866.7	1271.9

CC(CC(C)(C)C)CP(=O)(O)CC(C)CC(C)(C)C (stereo unspecified) [bis-(2,4,4-trimethylpentyl) phosphinic acid] + c1ccccc1
[1]
Conditions	mass density [kg/m3]	speed of sound [m/s]
x1 = 0.0666	886.8	1252.2
x1 = 0.109	891.9	1255.2
x1 = 0.1599	895.6	1258.1
x1 = 0.2222	901.1	1259.1
x1 = 0.2999	904.9	1261.3
x1 = 0.3999	908.4	1263.2
x1 = 0.5332	912.3	1266.8
x1 = 0.7199	915.3	1274.3
x1 = 1	924.7	1290.4

CC(CC(C)(C)C)CP(=O)(O)CC(C)CC(C)(C)C (stereo unspecified) [bis-(2,4,4-trimethylpentyl) phosphinic acid]
[2]
Conditions	mass density [kg/m3]	speed of sound [m/s]
–	924.7	1290.4

CC(CC(C)(C)C)CP(=O)(O)CC(C)CC(C)(C)C (stereo unspecified) [bis-(2,4,4-trimethylpentyl) phosphinic acid] + Cc1ccccc1
[1]
Conditions	mass density [kg/m3]	speed of sound [m/s]
x1 = 0.0781	875.6	1266.5
x1 = 0.1268	882.5	1266.9
x1 = 0.1843	888	1267.5
x1 = 0.2532	893.8	1268.2
x1 = 0.3371	899.7	1269.2
x1 = 0.4416	900.9	1274.6
x1 = 0.5755	906.4	1278
x1 = 0.7531	913.1	1284
x1 = 1	924.7	1290.4

c1ccccc1 [benzene]
[2]
Conditions	mass density [kg/m3]	speed of sound [m/s]
–	872	1257

Cc1ccccc1 [toluene]
[2]
Conditions	mass density [kg/m3]	speed of sound [m/s]
–	866.7	1271.9
